The record followed here is patent publication US11970474B2, “Substituted benzodiazoles and use thereof in therapy” (THOMAS HELLEDAYS STIFTELSE FÖR MEDICINSK FORSKNING, priority 2018, dated 2024).

One test addresses OGG1 (Homo sapiens (Human), UniProt O15527). The experiment in a line: In vitro OGG1 activity assay. The following applies: 800 pM OGG1 enzyme, 2 nM human APEX1, 10 nM 8-oxoA:C substrate. The class given is biochemical. In a few lines:
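Read-out is fluorescein fluorescence, with compounds in DMSO added first, then enzyme and substrate. OGG1 excises its substrate base from a quenched fluorophore-labelled duplex, and surplus APEX1 cuts the resulting apurinic site. The duplex then melts and fluorescence rises in proportion to glycosylase activity.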

A further test has as its system MLE12 cells. The experiment in a line: Cell viability assay in MLE12 cells (resazurin). The class given is cell-based, mouse. Particulars: TNF-α 20 ng/ml, resazurin added after 24 hours culture. The essentials: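 MLE12 cells (7500 cells/well) were seeded onto 11-point duplicate compound dose-responses, with TNF-α (final 20 ng/ml) added after 1 hour at 37° C. After 24 hours, resazurin was added for 6 hours and resorufin fluorescence read (ex544 nm/em595 nm). EC50 values were calculated by curve fitting.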
Background: Alamar Blue is a resazurin reagent that responds to reducing activity.

For another test, the system named is CCL2. In words: Mouse CCL2 assay in MLE12 cells. It is filed as cell-based. In a few lines: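 CCL2 in supernatants was quantified by two-antibody HTRF FRET, read at 620 and 665 nm after overnight RT incubation, with IC50 derived from delta ratios. Cells were SV40-transformed mouse MLE12, treated with duplicate 6-point compound series for 1 h before 30 h TNF-α (20 ng/ml final) stimulation.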

The mark [1] stands for this setting: Mus musculus, MLE12, 30 h, MLE12 cells, TNF-α 20 ng/ml, supernatant after 30 hours, HTRF, read-out: CCL2 (EC50).
The mark [2] stands for this setting: MLE12 cells, TNF-α 20 ng/ml, supernatant after 30 hours, HTRF, read-out: CCL2 (EC50).

Read-outs that look alike come from different tables or passages of the source.

Sequence of OGG1 (O15527 whole entry): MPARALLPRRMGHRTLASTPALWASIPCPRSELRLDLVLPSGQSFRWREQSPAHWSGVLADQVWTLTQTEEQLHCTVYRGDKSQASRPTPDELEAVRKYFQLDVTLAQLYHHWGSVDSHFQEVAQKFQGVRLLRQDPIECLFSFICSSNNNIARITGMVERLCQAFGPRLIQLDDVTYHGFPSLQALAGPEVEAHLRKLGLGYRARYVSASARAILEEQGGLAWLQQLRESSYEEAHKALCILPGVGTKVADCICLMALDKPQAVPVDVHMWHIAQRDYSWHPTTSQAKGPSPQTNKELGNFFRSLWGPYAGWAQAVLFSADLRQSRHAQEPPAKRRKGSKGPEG

Regarding `Cn1c(NC(=O)[C@H]2CC[C@@H](n3c(=O)[nH]c4c(Br)cccc43)CC2)nc2ccccc21` [Example 257, Cis-4-(4-bromo-2-oxo-2,3-dihydro-1H-1,3-benzodiazol-1-yl)-N-(1-methyl-1H-1,3-benzodiazol-2-yl)cyclohexane-1-carboxamide], the half-inhibitory concentration (IC50) (in general, the midpoint of a concentration-inhibition curve) against OGG1 is 26.9 nM; in the test on MLE12 cells (Mus musculus, MLE12, 24 h) it was 19.9 µM. In the test with CCL2 (setting [1]), the EC50 – broadly, the concentration at which the effect is half-maximal – was found to be 34300 nM.
For the compound `Cc1cc(NC(=O)[C@H]2CC[C@@H](n3c(=O)[nH]c4c(Br)cccc43)CC2)cnc1Cl` [Example 187, Cis-4-(4-bromo-2-oxo-2,3-dihydro-1H-1,3-benzodiazol-1-yl)-N-(6-chloro-5-methylpyridin-3-yl)cyclohexane-1-carboxamide], the half-maximal inhibitory concentration (IC50) came to 338 nM at OGG1 and 7.9 µM in the test with MLE12 cells (Mus musculus, MLE12, 24 h). Further, the EC50 in the test with CCL2 (setting [1]) worked out at 13000 nM.
Taken in the same sequence, the figures for `O=c1[nH]c2c(Cl)cccc2n1[C@H]1CC[C@@H](C(=O)Nc2ccc3cc[nH]c3c2)CC1` [Example 148, (Cis)-4-(4-chloro-2-oxo-2,3-dihydro-1H-1,3-benzodiazol-1-yl)-N-(1H-indol-6-yl)cyclohexane-1-carboxamide] were 98 nM, 15.7 µM and 31700 nM.
Consider `COc1cc(NC(=O)[C@H]2CC[C@@H](n3c(=O)[nH]c4c(Br)cccc43)CC2)ccc1C` [Example 107, (Cis)-4-(4-bromo-2-oxo-2,3-dihydro-1H-1,3-benzodiazol-1-yl)-N-(3-methoxy-4-methylphenyl)cyclohexane-1-carboxamide], for which the concentration for half-maximal inhibition (IC50) at OGG1 came to 23 nM; in the test with MLE12 cells (Mus musculus, MLE12, 24 h) it was 7.41 µM; with MLE12 cells, 7.4 µM. For the same compound, the figures for the EC50 in the test with CCL2 (setting [2]) and in the test on CCL2 (setting [1]) were 16700 nM and 15600 nM, respectively.
Taken in the same sequence, the figures for `COc1cc(NC(=O)N2CCC(n3c(=O)[nH]c4c(Br)cccc43)CC2)ccc1C` [Example 75, 4-(4-Bromo-2-oxo-2,3-dihydro-1H-1,3-benzodiazol-1-yl)-N-(3-methoxy-4-methylphenyl)piperidine-1-carboxamide] were 223 nM, 10.4 µM, 12.8 µM, 39400 nM and 34100 nM.
`Cc1cc(NC(=O)N2C3CCC2CC(n2c(=O)[nH]c4c(-c5ccc(CO)nc5)cccc42)C3)ccc1I` (stereo not drawn) [Example 91, 3-{4-[6-(Hydroxymethyl)pyridin-3-yl]-2-oxo-2,3-dihydro-1H-1,3-benzodiazol-1-yl}-N-(4-iodo-3-methylphenyl)-(endo)-8-azabicyclo[3.2.1]octane-8-carboxamide]: the half-inhibitory concentration (IC50) on OGG1 is 58 nM; in the test on MLE12 cells (Mus musculus, MLE12, 24 h), 6.45 µM. Moreover, the EC50 in the test with CCL2 (setting [1]) amounted to 12600 nM.
Taken in the same sequence, the figures for `COc1ccc(NC(=O)[C@H]2CC[C@@H](n3c(=O)[nH]c4c(Br)cccc43)CC2)cc1OC` [Example 192, Cis-4-(4-bromo-2-oxo-2,3-dihydro-1H-1,3-benzodiazol-1-yl)-N-(3,4-dimethoxyphenyl)cyclohexane-1-carboxamide] were 34.2 nM, 15.7 µM and 32900 nM.
As to `O=C(Nc1ccc(Cl)c(F)c1)N1C2CCC1CC(n1c(=O)[nH]c3c(Br)cccc31)C2` (stereo not drawn) [Example 86, 3-(4-Bromo-2-oxo-2,3-dihydro-1H-1,3-benzodiazol-1-yl)-N-(4-chloro-3-fluorophenyl)-(endo)-8-azabicyclo[3.2.1]octane-8-carboxamide], the IC50 against OGG1 came out at 59 nM; in the test with MLE12 cells (Mus musculus), 13.7 µM. The EC50 with CCL2 (Mus musculus, MLE12, 30 h, read-out: CCL2 (EC50, nM)) is 19400 nM.
As for `COc1ccc(CSc2cccc3c2[nH]c(=O)n3[C@H]2CC[C@@H](C(=O)Nc3ccc(C)c(OC)c3)CC2)cc1` [Example 230, Cis-N-(3-methoxy-4-methylphenyl)-4-(4-{[(4-methoxyphenyl)methyl]sulfanyl}-2-oxo-2,3-dihydro-1H-1,3-benzodiazol-1-yl)cyclohexane-1-carboxamide], the IC50 against OGG1 worked out at 606 nM; with MLE12 cells (Mus musculus, MLE12, 24 h), 2.58 µM. The concentration giving a half-maximal response (EC50) in the test on CCL2 (setting [1]) was 5840 nM.
Taken in the same sequence, the figures for `O=c1[nH]c2c(Br)cccc2n1[C@H]1CC[C@@H](C(=O)Nc2ccc(O)cc2)CC1` [Example 191, Cis-4-(4-bromo-2-oxo-2,3-dihydro-1H-1,3-benzodiazol-1-yl)-N-(4-hydroxyphenyl)cyclohexane-1-carboxamide] were 55.7 nM, 29.8 µM and 33500 nM.
Taken in the same sequence, the figures for `COc1cc(NC(=O)[C@H]2CC[C@@H](n3c(=O)[nH]c4c(N(C)C5CCN(C)C5)cccc43)CC2)ccc1C` (stereo partly drawn) [Example 296, Cis-N-(3-Methoxy-4-methylphenyl)-4-{4-[methyl(1-methylpyrrolidin-3-yl)amino]-2-oxo-2,3-dihydro-1H-1,3-benzodiazol-1-yl}cyclohexane-1-carboxamide] were 28.6 nM, 13.5 µM and 10500 nM.
Taken in the same sequence, the figures for `COc1cc(NC(=O)[C@H]2CC[C@@H](n3c(=O)[nH]c4c(C(=O)NCc5ncc[nH]5)cccc43)CC2)ccc1C` [Example 270, N-[(1H-Imidazol-2-yl)methyl]-2-oxo-1-[cis-4-[(3-methoxy-4-methylphenyl)carbamoyl]cyclohexyl]-2,3-dihydro-1H-1,3-benzodiazole-4-carboxamide] were 0.39 nM, 16.8 µM and 32900 nM.
Take `O=c1[nH]c2c(Br)cccc2n1[C@H]1CC[C@@H](C(=O)Nc2ccc(Cl)nc2)CC1` [Example 184, Cis-4-(4-bromo-2-oxo-2,3-dihydro-1H-1,3-benzodiazol-1-yl)-N-(6-chloropyridin-3-yl)cyclohexane-1-carboxamide]: the IC50 on OGG1 came to 325 nM; in the test with MLE12 cells (Mus musculus, MLE12, 24 h), 7.86 µM. The EC50 in the test on CCL2 (setting [1]) turned out to be 16800 nM.
In the case of `CNc1cccc2c1[nH]c(=O)n2[C@H]1CC[C@@H](C(=O)Nc2ccc(C)c(OC)c2)CC1` [Example 244, Cis-N-(3-methoxy-4-methylphenyl)-4-[4-(methylamino)-2-oxo-2,3-dihydro-1H-1,3-benzodiazol-1-yl]cyclohexane-1-carboxamide], the half-maximal inhibitory concentration (IC50) is 60.7 nM against OGG1 and 13.7 µM in the test with MLE12 cells (Mus musculus, MLE12, 24 h). Besides, the EC50 with CCL2 (setting [1]) turned out to be 37300 nM.
On the same counts, the results for `O=C(Nc1ccc(Cl)c(Cl)c1)N1CCC(n2c(=O)[nH]c3c(-c4cncnc4)cccc32)CC1` [Example 37, N-(3,4-dichlorophenyl)-4-[2-oxo-4-(pyrimidin-5-yl)-2,3-dihydro-1H-1,3-benzodiazol-1-yl]piperidine-1-carboxamide] are 1590 nM, 7.03 µM and 17400 nM.
On the same counts, the results for `Cc1cc(NC(=O)[C@H]2CC[C@@H](n3c(=O)[nH]c4c(Br)cccc43)CC2)ccc1Cl` [Example 152, (Cis)-4-(4-bromo-2-oxo-2,3-dihydro-1H-1,3-benzodiazol-1-yl)-N-(4-chloro-3-methylphenyl)cyclohexane-1-carboxamide] are 74 nM, 6.18 µM and 15400 nM.
On the same counts, the results for `COc1cc(NC(=O)[C@H]2CC[C@@H](n3c(=O)[nH]c4c(C(=O)N5CCOCC5)cccc43)CC2)ccc1C` [Example 262, Cis-N-(3-methoxy-4-methylphenyl)-4-[4-(morpholine-4-carbonyl)-2-oxo-2,3-dihydro-1H-1,3-benzodiazol-1-yl]cyclohexane-1-carboxamide] are 348 nM, 19.7 µM and over 100000 nM.
Turning to `COc1cc(NC(=O)[C@H]2CC[C@@H](n3c(=O)[nH]c4c(N(C)CCCNC(=O)OC(C)(C)C)cccc43)CC2)ccc1C` [Example 305, tert-Butyl N-{3-[methyl({2-oxo-1-[cis-4-[(3-methoxy-4-methylphenyl)carbamoyl]cyclohexyl]-2,3-dihydro-1H-1,3-benzodiazol-4-yl})amino]propyl}carbamate], the half-maximal inhibitory concentration (IC50) against OGG1 worked out at 251 nM; in the test with MLE12 cells (Mus musculus, MLE12, 24 h) it was 4.88 µM. The EC50 in the test on CCL2 (setting [1]) was found to be 8110 nM.
